# Patent US20010012854A1, “MULTICATALYTIC PROTEASE INHIBITORS FOR USE AS ANTI-TUMOR AGENTS” (priority 1997, published 2001)
# Key:
# [1] = target: MCP chymotrypsin-like activity (Homo sapiens, UniProt P28074); assay: Inhibition of MCP chymotrypsin-like activity; format: biochemical
# Text: (§1) The rank-order potency for Jurkat cell killing precisely matched the order for MCP inhibition (Table 2, below).
# Inhibition of the chymotrypsin-like activity of MCP by the disclosed MCP inhibitors has been reported, but these MCP inhibitors produced relatively little inhibition on the MCP trypsin-like activity and cathepsin B, a vacuolar cysteine protease (Iqbal, M., et al. J. Med Chem. 38: 2276-2277, 1995; Iqbal, M., et al. Bioorg. Med. Chem. Lett. 6: 287-290, 1996; and Harding, C. V., et al. J. Immuno. 155: 1767-1775, 1995). Furthermore, the order of potency for inhibition of the chymotrypsin-like activity was reported to be Compound A>Compound B>Compound C by using both isolated MCP and intact murine B cells (Iqbal, M., et al. J. Med Chem. 38: 2276-2277, 1995; Iqbal, M., et al. Bioorg. Med. Chem. Lett. 6: 287-290, 1996; and Harding, C. V., et al. J. Immuno. 155: 1767-1775, 1995).
# [2] = tested on: Jurkat Human T Cell Leukemia Line; assay: Jurkat cell viability assay (XTT reduction); format: cell-based; conditions: Jurkat cells, 24 hours, viability by XTT reduction, read-out: Toxicity (IC50)
# Description: f. Cell viability assay. Jurkat cells were treated with MCP inhibitors or vehicle for 30 min. at 37° C. Next, ionomycin (1 μM) and the phorbol ester PMA (10 ng/ml) were added, together with 0.2% ethanol. After 24 h, cell viability was assessed by reduction of XTT (Sigma, X4251). To each well, 50 μl of XTT (1 mg/ml) and 25 μl PMS (Sigma 9625, 5 mM) were added. After 3 h at 37° C., the OD of each well was read at 450 nm/690 nm by a plate reader.
# as §1
# human Jurkat T cells = assay: Apoptosis in Jurkat T cells (flow cytometry sub-G1 DNA content, DNA fragmentation); format: cell-based; conditions: for Increase in the apoptotic population with sub-G1 DNA content: Jurkat T cells, 15 μM, 8 h
# Description: (§2) c. Treatment of cells with MCP inhibitor. Cells were treated with a specified MCP Inhibitor, a standard anticancer agent (etoposide or cisplatin), or DMSO (vehicle). During this process, morphological changes and cellular detachment (for attached cell lines) were monitored. At each time point, cells were harvested, and used for measurement of apoptosis and other biochemical events. In Example 1, infra, involving YVAD-CMK, Compound A was first added to Jurkat T cells. This was followed immediately by dividing the cells into multiple tissue culture flasks. YVAD-CMK was then added to an indicated concentration.
# (§3) d. Flow cytometry nuclear staining and DNA fragmentation assays. DNA content analysis using flow cytometry was performed as described previously (Nicoletti, I., et al. J. Immunol. Methods 139:271-279, 1992). To assay nuclear morphology, cells were washed with PBS, fixed with 70% ethanol for 1 h, and stained with Hoechst 33258 (1 mM) for 30 min. The nuclear morphology of cells was visualized by fluorescence microscope (OLYMPUS BH2). DNA fragmentation was assayed as described previously (Grant, S., et al. Cancer Res. 52:6270-6278, 1992).
# (§4) Example 1 was designed to determine if MCP is involved in the survival signaling pathway(s) and if inhibition of MCP activity induces apoptosis. Human Jurkat T cells were treated with 30 μM Compound A for 4 h. […] Both the p112 and p115 forms of RB as p112-115/RB were combined and used as an apoptosis marker.
# When human Jurkat T cells were treated with 15 μM Compound A for 8 h, there was a 23% increase in the apoptotic population with sub-G1 DNA content (FIG. 2, panels b vs. a). By comparison, when Compound B was used, only an 8%-increase in sub-G1 population was detected (FIG. 2, panels c vs. a).
# [3] = tested on: PARP, RB and caspase-3 cleavage in Jurkat T cells; assay: Western blot of caspase-3, PARP and RB in Jurkat T cells; format: cell-based, human; conditions: Jurkat T cells, 15 μM, time course up to 24 h
# Description: (§5) e. Whole cell extracts and western blot assay. To prepare whole cell extracts, cells were washed with PBS, and homogenized in lysis buffer (50 mM Tris, pH 8.0, 5 mM EDTA, 150 mM NaCl, 0.5% Nonidet P-40, 0.5 mM PMSF and 0.5 mM dithiothreitol). Following 30 min rocking at 4° C., the lysates were centrifuged and the supernatants were collected as whole cell extracts. The protein samples were then analyzed by sodium dodecyl sulfate-6% polyacrylamide gel electrophoresis (20-60 μg protein per lane) followed by the enhanced chemiluminescence Western blot assay using specific antibodies to CPP32, PARP, p21, p27 or RB.
# as §4
# The ability of these three MCP inhibitors to induce changes in PARP and RB proteins in a parallel experiment was also investigated. […] This rank corresponded exactly to that of the three compounds for inhibition of the chymotrypsin-like activity in isolated proteasomes (Iqbal, M., et al. J. Med Chem. 38: 2276-2277, 1995; Iqbal, M., et al. Bioorg. Med. Chem. Lett. 6: 287-290, 1996) and in intact murine B cells (Harding, C. V., et al. J Immuno. 155: 1767-1775, 1995).
# [4] = tested on: human leukemia HL-60 cells; assay: Apoptosis in HL-60 cells (DNA fragmentation, PARP cleavage); format: cell-based
# Description: as §3, §5
# Example 1 was designed to determine if MCP is involved in the survival signaling pathway(s) and if inhibition of MCP activity induces apoptosis. Human Jurkat T cells were treated with 30 μM Compound A for 4 h. […]
# [5] = tested on: Jurkat cells transfected with a control vector; assay: Apoptotic nuclear changes (Hoechst staining) in Jurkat cells transfected with control vector; format: cell-based, human; conditions: 50 μM, 8 h
# Description: (§6) b. Cell culture. Human Jurkat T and HL-60 cells were grown in RPMI 1640 (Life Technologies, Inc.) supplemented with 10% fetal calf serum (Sigma), 100 units/ml of penicillin, 100 μg/ml of streptomycin and 2mM L-glutamine (growth medium). Jurkat T. cells overexpressing the Bcl-2 oncoprotein or vector alone (provided by Dr. D. Johnson, University of Pittsburgh, Pa.) were grown in the same growth medium with […] G418. Human cancer cell lines of breast (MCF-7, MDA-MB-231), prostate (DU145, PC3) and osteosarcoma (U2-OS), obtained from American Type Culture Collection (ATCC. Rockville, Md.)), were also grown in the RPMI growth medium. Human oral (SCC-25; from ATCC) and brain (SNB-19; Welch, W. C., et al. In Vitro Cell. Dev. Biol., 31:610-616, 1995) cancer cell lines, and normal (WI-38) and SV40-transformed human fibroblasts (WI-38 VA-13; from ATCC) were grown in DMEM medium containing 10% fetal calf serum, penicillin, streptomycin and L-glutamine.
# as §3
# The apoptosis-inducing potency of Compound A was compared with two standard chemotherapeutic anti-cancer agents, etoposide and cisplatin. […] By comparison, treatment with 50 μM etoposide for 8 h induced only ˜47% of these cells to undergo apoptosis (FIG. 3, panels c vs. a). Treatment of 10 μM Compound A, but not etoposide or cisplatin, induced apoptosis in human prostate, breast, tongue and brain cancer cells and also in SV40 DNA virus-transformed human fibroblasts (see FIGS. 5-7).
# [6] = tested on: Bcl-2-overexpressing Jurkat cells; assay: Apoptosis in Bcl-2-overexpressing Jurkat cells (nuclear staining, western blot); format: cell-based, human
# Description: as §6, §3, §5
# It has been shown that overexpression of Bcl-2 oncoprotein inhibits apoptosis in many cell systems (Miura, M., et al., J. Cell 75: 653-660, 1993). Bcl-2 expression in human Jurkat T cells for inhibition of Compound A-induced apoptosis was investigated.
# [7] = tested on: Human prostate cancer PC-3 cells; assay: Detachment and apoptotic nuclear changes in PC-3 cells; format: cell-based; conditions: PC-3, 10 μM, 36 h
# Description: as §2, §3
# Human prostate cancer PC-3 cells were treated with 10 μM Compound A, etoposide, or an equal percentage of vehicle (DMSO), followed by separation of the attached and detached cell populations. Both attached and detached cell populations were then used for detection of apoptotic nuclear changes. After 36 h treatment with Compound A, ˜50% of PC-3 cells became detached.
# [8] = tested on: human prostate cancer DU145 cells; assay: Detachment and apoptotic nuclear changes in DU145 cells; format: cell-based; conditions: DU145, 16 h
# Description: as §2, §3
# Similar to PC-3, about half of human prostate cancer DU145 cells became detached after exposure to Compound A for 16 h.
# [9] = tested on: human breast cancer MDA-MB-231 cells; assay: Detachment and apoptotic nuclear changes in MDA-MB-231 cells; format: cell-based; conditions: MDA-MB-231, 24 h
# Description: as §2, §3
# (§7) Detachment was also found in at least half of human breast cancer MDA-MB-231 and MCF-7 cells, after exposure to Compound A for 24 h.
# [10] = tested on: human breast cancer MCF-7 cells; assay: Detachment and apoptotic nuclear changes in MCF-7 cells; format: cell-based; conditions: MCF-7, 24 h
# Description: as §2, §3, §7
# [11] = tested on: SV40-transformed human fibroblasts (WI-38 VA13); assay: Detachment, apoptotic nuclear changes and PARP cleavage in SV40-transformed fibroblasts; format: cell-based; conditions: WI-38 VA13, 10 μM, up to 22 h
# Description: as §2, §3, §5
# (§8) Whether Compound A has, any selectivity in induction of apoptosis between transformed and normal cells was investigated. Normal human fibroblast cell line (WI-38) and its SV40-transformed derivative (WI-38 VA13) were utilized. […]
# [12] = tested on: Normal human fibroblast cell line (WI-38); assay: Detachment, apoptotic nuclear changes and PARP cleavage in normal fibroblasts; format: cell-based; conditions: normal WI-38, 10 μM, up to 22 h
# Description: as §2, §3, §5, §8
# [13] = tested on: p21 and p27 in human breast cancer MDA-MB-231 cells; assay: Western blot of p21 and p27 levels in MDA-MB-231 cells; format: cell-based; conditions: MDA-MB-231, 17 hours, concentrations up to 100 μM
# Description: as §5
# Additionally, a band of 70 kDa whih may represent ubiquinated p70 was also observed. In contrast, etoposide caused only limited accumulation of p21 (≦4-fold) and p27 (≦2-fold) at 17 hours when used at concentrations up to 100 μM.
molecule,measurement,setting,value
CC(C)C[C@@H](C=O)NC(=O)[C@@H](CCCNC(=N)N[N+](=O)[O-])NC(=O)C(CCCCCCCCC#N)C1CCCC1 (some centres unmarked) [Compound B],IC50,[1],6 nM
same,IC50,[2],1600 nM
same,Increase in the apoptotic population with sub-G1 DNA content,human Jurkat T cells,8%
same,Production of p85/PARP and p112-115/RB,[3],much less p85/PARP and p 112-115/RB were found before 8 h
same,Internucleosomal fragmentation of DNA,[4],induced internucleosomal fragmentation of DNA
CCNC(=O)C(=O)C(CC(C)C)NC(=O)C(CCCN/C(N)=N/[N+](=O)[O-])NC(=O)C(CCCCCCCCC#N)C1CCCC1 (centres unmarked) [Compound C],IC50,[1],21 nM
same,IC50,[2],9700 nM
same,Increase in the apoptotic population with sub-G1 DNA content,human Jurkat T cells,did not induce apoptosis
same,Production of p85/PARP and p112-115/RB,[3],only induced little p85/PARP and p112-115/RB after 24 h
COC(=O)CCCCCCCCC(C(=O)N[C@@H](CCCNC(=N)NS(=O)(=O)c1ccc2c(c1)CCC(C)(C)O2)C(=O)NC(C=O)CC(C)C)C1CCCC1 (some centres unmarked) [F],IC50,[2],1700 nM
COC(=O)CCCCCCCCC(C(=O)N[C@@H](CCCNC(=N)NS(=O)(=O)c1ccc2c(c1)CCC(C)(C)O2)C(=O)N[C@H](C=O)CC(C)C)C1CCCC1 (some centres unmarked) [F],IC50,[1],10 nM
Cc1c(C)c(S(=O)(=O)NC(=N)NCCC[C@H](NC(=O)C(CCCCCCCCC#N)C2CCCC2)C(=O)N[C@H](C=O)CC(C)C)c(C)c2c1OC(C)(C)CC2 (some centres unmarked) [G],IC50,[1],20 nM
same,IC50,[2],5700 nM
CC(C)CC(C=NNC(N)=O)NC(=O)C(CCCNC(=N)N[N+](=O)[O-])NC(=O)C(CCCCCCCCC#N)C1CCCC1 (centres unmarked) [H],IC50,[1],300 nM
same,IC50,[2],> 30000 nM
"COc1cc([C@@H]2c3cc4c(cc3[C@@H](O[C@@H]3O[C@@H]5CO[C@@H](C)O[C@H]5[C@H](O)[C@H]3O)[C@H]3COC(=O)[C@H]23)OCO4)cc(OC)c1O [etoposide, reference compound]",Cells exhibiting apoptotic nuclear changes,[5],~47%
same,Effect of Bcl-2 expression on induced PARP and RB changes,[6]; 50 μM,inhibited these PARP and RB changes
same,Effect of Bcl-2 expression on induced apoptotic nuclear changes,"[6]; etoposide treatment as in FIG. 3 (50 μM, 8 h)",blocked the apoptotic nuclear changes induced by etoposide
same,Detached cells,[7],Little or no detachment
same,Nuclear morphology (apoptotic condensation and fragmentation),[7],"all the remaining attached cells contained normal, round nuclei"
same,Detached cells,[8],very little detachment
same,Nuclear morphology,[8],the remaining attached cells still contained normal nuclei
same,Apoptosis by nuclear staining,[9],did not induce apoptosis
same,Apoptosis by nuclear staining,[10],did not induce apoptosis
same,Detachment and apoptotic nuclear changes,[11],did not induce apoptosis in either transformed or normal WI-38 cells
same,Detachment and apoptotic nuclear changes,[12],did not induce apoptosis in either transformed or normal WI-38 cells
same,Accumulation of p21,[13],≤ 4 fold
same,Accumulation of p27,[13],≤ 2 fold
"Acetyl-YVAD-chloromethyl ketone [YVAD-CMK, reference compound]","Block of Compound A-induced apoptotic events (apoptotic peak, caspase-3 processing, PARP cleavage, RB dephosphorylation and cleavage)",human Jurkat T cells; added to Compound A-treated Jurkat T cells,completely blocked
